Columns and labels:
human GHS receptor [1] = target: T1, human GHS receptor (Homo sapiens, UniProt Q92847); experiment: Ghrelin IP1 agonist assay (IP1 HTRF); type: cell-based; parameters: expressed in transfected cells; host or cells: HEK293s; settings: for Emax: 2 h, agonist effect as % maximal effect of GHRP-6 (5 μM), read-out: h IP1 ag %; for EC50: HEK293s cells stably expressing human GHS receptor, 2 hours at 37° C., read-out: h IP1 ag EC50
Method in brief: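 Cells: HEK293s stably expressing human GHS receptor, in stimulation buffer containing 0.02% fatty acid free BSA.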

human GHS receptor [2] = target: T1, human GHS receptor; experiment: h bind IC50 (binding assay, Table 1); settings: human receptor; Table 1

T1 sequence (Q92847 whole entry): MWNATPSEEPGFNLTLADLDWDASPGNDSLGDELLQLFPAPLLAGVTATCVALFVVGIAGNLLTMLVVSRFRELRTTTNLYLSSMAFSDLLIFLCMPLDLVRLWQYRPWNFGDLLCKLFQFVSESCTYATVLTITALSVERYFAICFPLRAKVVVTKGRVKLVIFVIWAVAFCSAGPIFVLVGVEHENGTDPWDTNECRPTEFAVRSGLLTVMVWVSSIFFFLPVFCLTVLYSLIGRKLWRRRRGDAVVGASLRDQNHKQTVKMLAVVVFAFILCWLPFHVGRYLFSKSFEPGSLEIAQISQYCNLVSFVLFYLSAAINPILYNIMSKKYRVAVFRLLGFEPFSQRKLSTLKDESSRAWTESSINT

## COc1cc(Cl)c(C(=O)NC(=O)Nc2nc3ccc(S(=O)(=O)C4CCN(C(=O)OC(C)(C)C)CC4)cc3s2)cc1-n1cccn1 [Example 262, tert-butyl4-(2-(3-(2-chloro-4-methoxy-5-(1H-pyrazol-1-yl)benzoyl)ureido)benzo[d]thiazol-6-ylsulfonyl) piperidine-1-carboxylate]
Human GHS receptor [1]
  Emax: 0%
  EC50: ≥ 20000 nM
Human GHS receptor [2]
  IC50: 34.3 nM

## COc1cc(Cl)c(C(=O)NC(=O)Nc2nc3ccc(S(=O)(=O)C4CCN(C)CC4)cc3s2)cc1-n1cccn1 [Example 264, 2-chloro-4-methoxy-N-(6-(1-methylpiperidin-4-ylsulfonyl)benzo [d]thiazol-2-ylcarbamoyl) 5-(1H-pyrazol-1-yl)benzamide]
Human GHS receptor [1]
  Emax: 0%
  EC50: ≥ 20000 nM
Human GHS receptor [2]
  IC50: 4.43 nM

## COc1cc(Cl)c(C(=O)NC(=O)Nc2nc3ccc(S(=O)(=O)C4CCN(C)CC4)cc3s2)cc1-n1nccc1C [Example 265, 2-chloro-4-methoxy-5-(5-methyl-1H-pyrazol-1-yl)-N-(6-(1-methylpiperidin-4-ylsulfonyl)benzo [d]thiazol-2-ylcarbamoyl) benzamide]
Human GHS receptor [1]
  Emax: 0%
Human GHS receptor [2]
  IC50: 29.6 nM

## CN(C)Cc1ccc(Cl)c(C(=O)NC(=O)Nc2nc3ccc(S(C)(=O)=O)cc3s2)c1 [Example 266, 2-chloro-5-((dimethylamino)methyl)-N-(6-(methylsulfonyl)benzo[d]thiazol-2-ylcarbamoyl) benzamide]
Human GHS receptor [1]
  Emax: 6%
  EC50: ≥ 20000 nM
Human GHS receptor [2]
  IC50: 4940 nM

## CN(C)C1CCCN(c2ccc(Cl)c(C(=O)NC(=O)Nc3nc4ccc(S(C)(=O)=O)cc4s3)c2)C1 (centres unmarked) [Example 268, 2-Chloro-5-(3-dimethylamino-1-piperidyl)-N-[(6-methylsulfonyl-1,3-benzothiazol-2-yl)carbamoyl]benzamide]
Human GHS receptor [1]
  Emax: 11.3%
  EC50: 7320 nM
Human GHS receptor [2]
  IC50: 965 nM
